Experiments:
Test in all cases: relative viability (nuclei count vs DMSO), 5 days (fraction); higher = more cells survive
NCI-H1944 = tested on: NCI-H1944
How it was run: (§1)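 Relative viability divides the nuclei count in treated wells by that in vehicle wells. Lung cancer cell lines were seeded in 1536-well plates, dosed by pin tool the next day, and fixed and stained after 5 days in one step with final 0.05% Triton X-100, 1% formaldehyde and 1 ug/ml Hoechst. Dosing was a single drug or a fixed anchor-drug dose plus five library-drug doses (not always all listed) in √10 steps, and values are medians of duplicate plates imaged at 4×.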

LC-2-ad = tested on: LC-2-ad
How it was run: as §1

COR-L 105 = tested on: COR-L 105
How it was run: as §1

NCI-H3122 = tested on: NCI-H3122
How it was run: as §1

CAL-12T = tested on: CAL-12T
How it was run: as §1

LU99A = tested on: LU99A
How it was run: as §1

NCI-H1395 = tested on: NCI-H1395
How it was run: as §1

NCI-H1734 = tested on: NCI-H1734
How it was run: as §1

PC-14 = tested on: PC-14
How it was run: as §1

NCI-H838 = tested on: NCI-H838
How it was run: as §1

NCI-H2228 = tested on: NCI-H2228
How it was run: as §1

HARA = tested on: HARA
How it was run: as §1

SK-LU-1 = tested on: SK-LU-1
How it was run: as §1

NCI-H1975 = tested on: NCI-H1975
How it was run: as §1

PC-3 [JPC-3] = tested on: PC-3 [JPC-3]
How it was run: as §1

HCC-366 = tested on: HCC-366
How it was run: as §1

NCI-H647 = tested on: NCI-H647
How it was run: as §1

H3255 = tested on: H3255
How it was run: as §1

NCI-H520 = tested on: NCI-H520
How it was run: as §1

NCI-H1666 = tested on: NCI-H1666
How it was run: as §1

NCI-H1993 = tested on: NCI-H1993
How it was run: as §1

HCC-15 = tested on: HCC-15
How it was run: as §1

## O=c1[nH]c2ccccc2n1C1CCN(CCCC(c2ccc(F)cc2)c2ccc(F)cc2)CC1 [Pimozide] + CC1(C)CCC(c2ccc(Cl)cc2)=C(CN2CCN(c3ccc(C(=O)NS(=O)(=O)c4ccc(N[C@H](CCN5CCOCC5)CSc5ccccc5)c(S(=O)(=O)C(F)(F)F)c4)cc3)CC2)C1 [Navitoclax] (partner 0.5 µM)
NCI-H1944; first compound 0.08 µM
  relative viability: 0.945
NCI-H1944; first compound 0.253 µM
  relative viability: 1.05
NCI-H1944; first compound 0.8 µM
  relative viability: 0.926
NCI-H1944; first compound 2.53 µM
  relative viability: 1.03
NCI-H1944; first compound 8 µM
  relative viability: 0.995
LC-2-ad; first compound 0.08 µM
  relative viability: 0.498
LC-2-ad; first compound 0.253 µM
  relative viability: 0.509
LC-2-ad; first compound 0.8 µM
  relative viability: 0.286
LC-2-ad; first compound 2.53 µM
  relative viability: 0.421
LC-2-ad; first compound 8 µM
  relative viability: 0.392
COR-L 105; first compound 0.253 µM
  relative viability: 0.601
COR-L 105; first compound 0.8 µM
  relative viability: 0.618
COR-L 105; first compound 2.53 µM
  relative viability: 0.816
COR-L 105; first compound 8 µM
  relative viability: 0.645
NCI-H3122; first compound 0.08 µM
  relative viability: 0.987
NCI-H3122; first compound 0.253 µM
  relative viability: 1.06
NCI-H3122; first compound 0.8 µM
  relative viability: 1.04
NCI-H3122; first compound 2.53 µM
  relative viability: 0.982
NCI-H3122; first compound 8 µM
  relative viability: 0.957
CAL-12T; first compound 0.08 µM
  relative viability: 1.35
CAL-12T; first compound 0.253 µM
  relative viability: 1.23
CAL-12T; first compound 0.8 µM
  relative viability: 1.23
CAL-12T; first compound 2.53 µM
  relative viability: 0.977
CAL-12T; first compound 8 µM
  relative viability: 1.08
LU99A; first compound 0.08 µM
  relative viability: 0.794
LU99A; first compound 0.253 µM
  relative viability: 0.772
LU99A; first compound 0.8 µM
  relative viability: 0.716
LU99A; first compound 2.53 µM
  relative viability: 0.875
LU99A; first compound 8 µM
  relative viability: 0.806
NCI-H1395; first compound 0.08 µM
  relative viability: 1.08
NCI-H1395; first compound 0.253 µM
  relative viability: 1.15
NCI-H1395; first compound 0.8 µM
  relative viability: 1.34
NCI-H1395; first compound 2.53 µM
  relative viability: 1.1
NCI-H1395; first compound 8 µM
  relative viability: 1.3
NCI-H1734; first compound 0.08 µM
  relative viability: 0.894
NCI-H1734; first compound 0.253 µM
  relative viability: 0.806
NCI-H1734; first compound 0.8 µM
  relative viability: 0.764
NCI-H1734; first compound 2.53 µM
  relative viability: 0.83
NCI-H1734; first compound 8 µM
  relative viability: 0.836
PC-14; first compound 0.08 µM
  relative viability: 1.04
PC-14; first compound 0.253 µM
  relative viability: 1
PC-14; first compound 0.8 µM
  relative viability: 0.99
PC-14; first compound 2.53 µM
  relative viability: 1.09
PC-14; first compound 8 µM
  relative viability: 0.967
NCI-H838; first compound 0.08 µM
  relative viability: 1.18
NCI-H838; first compound 0.253 µM
  relative viability: 1.12
NCI-H838; first compound 0.8 µM
  relative viability: 1.01
NCI-H838; first compound 2.53 µM
  relative viability: 1.11
NCI-H838; first compound 8 µM
  relative viability: 1.16
NCI-H2228; first compound 0.08 µM
  relative viability: 0.758
NCI-H2228; first compound 0.253 µM
  relative viability: 0.715
NCI-H2228; first compound 0.8 µM
  relative viability: 0.845
NCI-H2228; first compound 2.53 µM
  relative viability: 0.616
NCI-H2228; first compound 8 µM
  relative viability: 0.614
HARA; first compound 0.08 µM
  relative viability: 1.11
HARA; first compound 0.253 µM
  relative viability: 1.18
HARA; first compound 0.8 µM
  relative viability: 1.1
HARA; first compound 2.53 µM
  relative viability: 1.12
HARA; first compound 8 µM
  relative viability: 1.14
SK-LU-1; first compound 0.08 µM
  relative viability: 1.09
SK-LU-1; first compound 0.253 µM
  relative viability: 0.815
SK-LU-1; first compound 0.8 µM
  relative viability: 0.804
SK-LU-1; first compound 2.53 µM
  relative viability: 0.76
SK-LU-1; first compound 8 µM
  relative viability: 0.809
NCI-H1975; first compound 0.08 µM
  relative viability: 1.22
NCI-H1975; first compound 0.253 µM
  relative viability: 1.06
NCI-H1975; first compound 0.8 µM
  relative viability: 1.08
NCI-H1975; first compound 2.53 µM
  relative viability: 1.16
NCI-H1975; first compound 8 µM
  relative viability: 0.992
PC-3 [JPC-3]; first compound 0.253 µM
  relative viability: 0.73
PC-3 [JPC-3]; first compound 0.8 µM
  relative viability: 0.798
PC-3 [JPC-3]; first compound 2.53 µM
  relative viability: 0.761
PC-3 [JPC-3]; first compound 8 µM
  relative viability: 0.732
HCC-366; first compound 0.08 µM
  relative viability: 1.01
HCC-366; first compound 0.253 µM
  relative viability: 1.12
HCC-366; first compound 0.8 µM
  relative viability: 1.02
HCC-366; first compound 2.53 µM
  relative viability: 0.986
HCC-366; first compound 8 µM
  relative viability: 0.976
NCI-H647; first compound 0.08 µM
  relative viability: 1.17
NCI-H647; first compound 0.253 µM
  relative viability: 1.14
NCI-H647; first compound 0.8 µM
  relative viability: 0.91
NCI-H647; first compound 2.53 µM
  relative viability: 0.954
NCI-H647; first compound 8 µM
  relative viability: 0.837
H3255; first compound 0.253 µM
  relative viability: 0.555
H3255; first compound 0.8 µM
  relative viability: 0.549
H3255; first compound 2.53 µM
  relative viability: 0.551
H3255; first compound 8 µM
  relative viability: 0.506
NCI-H520; first compound 0.08 µM
  relative viability: 1.13
NCI-H520; first compound 0.253 µM
  relative viability: 1.05
NCI-H520; first compound 0.8 µM
  relative viability: 1.16
NCI-H520; first compound 2.53 µM
  relative viability: 1.07
NCI-H520; first compound 8 µM
  relative viability: 1.15
NCI-H1666; first compound 0.08 µM
  relative viability: 0.824
NCI-H1666; first compound 0.253 µM
  relative viability: 1.01
NCI-H1666; first compound 0.8 µM
  relative viability: 1.04
NCI-H1666; first compound 2.53 µM
  relative viability: 0.846
NCI-H1666; first compound 8 µM
  relative viability: 0.5
NCI-H1993; first compound 0.08 µM
  relative viability: 0.797
NCI-H1993; first compound 0.253 µM
  relative viability: 0.826
NCI-H1993; first compound 0.8 µM
  relative viability: 0.91
NCI-H1993; first compound 2.53 µM
  relative viability: 0.933
NCI-H1993; first compound 8 µM
  relative viability: 0.806
HCC-15; first compound 0.08 µM
  relative viability: 0.797
HCC-15; first compound 0.253 µM
  relative viability: 0.724
HCC-15; first compound 0.8 µM
  relative viability: 0.66
HCC-15; first compound 2.53 µM
  relative viability: 0.636
HCC-15; first compound 8 µM
  relative viability: 0.621

— the supplement of paper PMC10307832
